Assays:
Assay type in all cases: cell-based
[1] = system: Resistant Enterococcus faecium and faecalis; assay: MIC, standard broth micro-dilution assay, Resistant; conditions: geometric mean of 4-6 isolates
Description: (§1) The antibacterial efficacy of the present compounds is illustrated by Table III. The minimal inhibitory concentrations (MICs) were determined using a standard broth micro-dilution assay.

[2] = system: Sensitive Enterococcus faecium and faecalis; assay: MIC, standard broth micro-dilution assay, Sensitive; conditions: geometric mean of 4-6 isolates
Description: as §1

[3] = system: Staphylococcus aureus 446; assay: MIC, standard broth micro-dilution assay, SA 446
Description: as §1

[4] = system: Staphylococcus aureus 489; assay: MIC, standard broth micro-dilution assay, SA 489
Description: as §1

[5] = system: Staphylococcus aureus 447; assay: MIC, standard broth micro-dilution assay, SA 447
Description: as §1

[6] = system: Staphylococcus aureus X400; assay: MIC, standard broth micro-dilution assay, SA X400
Description: as §1

[7] = system: Staphylococcus aureus X778; assay: MIC, standard broth micro-dilution assay, SA X778
Description: as §1

[8] = system: Staphylococcus aureus 491; assay: MIC, standard broth micro-dilution assay, SA 491
Description: as §1

[9] = system: Staphylococcus aureus S13E
Description: as §1

[10] = system: Staphylococcus aureus SA1199; assay: MIC, standard broth micro-dilution assay, SA 1199
Description: as §1

[11] = system: Staphylococcus aureus SA1199A; assay: MIC, standard broth micro-dilution assay, SA 1199A
Description: as §1

[12] = system: Staphylococcus haemolyticus 105; assay: MIC, standard broth micro-dilution assay, SH 105
Description: as §1

[13] = system: Staphylococcus haemolyticus 415; assay: MIC, standard broth micro-dilution assay, SH 415
Description: as §1

[14] = system: Staphylococcus epidermidis 270; assay: MIC, standard broth micro-dilution assay, SE 270
Description: as §1

Enterococcus faecium 180 = assay: MIC, standard broth micro-dilution assay, EF 180
Description: as §1

[15] = system: Enterococcus faecium 180-1; assay: MIC, standard broth micro-dilution assay, EF 180-1
Description: as §1

[16] = system: Enterococcus faecalis 2041; assay: MIC, standard broth micro-dilution assay, EF 2041
Description: as §1

[17] = system: Enterococcus faecalis 276; assay: MIC, standard broth micro-dilution assay, EF 276
Description: as §1

[18] = system: Enterococcus gallinarum 245; assay: MIC, standard broth micro-dilution assay, EG 245
Description: as §1

[19] = system: Haemophilus influenzae RD; assay: MIC, standard broth micro-dilution assay, HFRD
Description: as §1

Escherichia coli EC14 = assay: MIC, standard broth micro-dilution assay, EC 14
Description: as §1

Row | SMILES | minimal inhibitory concentration (MIC), Resistant [1] | minimal inhibitory concentration (MIC), Sensitive [2] | minimal inhibitory concentration (MIC), SA 446 [3] | minimal inhibitory concentration (MIC), SA 489 [4] | minimal inhibitory concentration (MIC), SA 447 [5] | minimal inhibitory concentration (MIC), SA X400 [6] | minimal inhibitory concentration (MIC), SA X778 [7] | minimal inhibitory concentration (MIC), SA 491 [8] | minimal inhibitory concentration (MIC), SA S13E [9] | minimal inhibitory concentration (MIC), SA 1199 [10] | minimal inhibitory concentration (MIC), SA 1199A [11] | minimal inhibitory concentration (MIC), SH 105 [12] | minimal inhibitory concentration (MIC), SH 415 [13] | minimal inhibitory concentration (MIC), SE 270 [14] | minimal inhibitory concentration (MIC), EF 180 (Enterococcus faecium 180) | minimal inhibitory concentration (MIC), EF 180-1 [15] | minimal inhibitory concentration (MIC), EF 2041 [16] | minimal inhibitory concentration (MIC), EF 276 [17] | minimal inhibitory concentration (MIC), EG 245 [18] | minimal inhibitory concentration (MIC), HFRD [19] | further results
1 | CSCCC(NC(=O)OC(C)(C)C)C(=O)NC1C(=O)NC(CC(N)=O)C(=O)NC2C(=O)NC3C(=O)NC(C(=O)NC(C(=O)O)c4cc(O)cc(O)c4-c4cc3ccc4O)C(OC3CC(C)(N)C(O)C(C)O3)c3ccc(c(Cl)c3)Oc3cc2cc(c3OC2OC(CO)C(O)C(O)C2OC2CC(C)(NCc3ccc(-c4ccccc4)cc3)C(O)C(C)O2)Oc2ccc(cc2Cl)C1O [Example 15, N^1-(N-BOC-D-methionine) derivative of N^DISACC-(p-phenylbenzyl)desleucylA82846B] | 27 | 1.2 | 1 | 1 | 1 | 1 | 0.5 | 1 | 1 | 2 | 0.125 | 1 | 1 | 0.25 | 8 | ≦.06 | 0.25 | 0.5 | 1 | >64 | minimal inhibitory concentration (MIC), EC 14 (Escherichia coli EC14): >64
2 | CC(C)CC(NC(=O)OC(C)(C)C)C(=O)NC1C(=O)NC(CC(N)=O)C(=O)NC2C(=O)NC3C(=O)NC(C(=O)NC(C(=O)O)c4cc(O)cc(O)c4-c4cc3ccc4O)C(OC3CC(C)(N)C(O)C(C)O3)c3ccc(c(Cl)c3)Oc3cc2cc(c3OC2OC(CO)C(O)C(O)C2OC2CC(C)(NCc3ccc(-c4ccccc4)cc3)C(O)C(C)O2)Oc2ccc(cc2Cl)C1O [Example 11, N^1-(N-BOC-L-leucine) derivative of N^DISACC-(p-phenylbenzyl)desleucylA82846B] | 45 | 1.7 | 1 | 2 | 1 | 1 | 0.5 | 2 | 1 | 1 | 1 | 0.5 | 1 | 0.5 | 8 | 0.25 | 1 | 2 | 1 | >64 | minimal inhibitory concentration (MIC), EC 14 (Escherichia coli EC14): >64
3 | CC(C)CCC(=O)N[C@H]1C(=O)N[C@@H](CC(N)=O)C(=O)N[C@H]2C(=O)N[C@H]3C(=O)NC(C(=O)N[C@H](C(=O)O)c4cc(O)cc(O)c4-c4cc3ccc4O)[C@H](OC3CC(C)(N)C(O)C(C)O3)c3ccc(c(Cl)c3)Oc3cc2cc(c3OC2OC(CO)C(O)C(O)C2OC2CC(C)(N)C(O)C(C)O2)Oc2ccc(cc2Cl)[C@H]1O (stereo partly drawn) [Example 4, N^1-(4-methyl-n-pentanoyl)desleucylA82846B] | >128 | 4 | 1 | 0.5 | 1 | 0.25 | 0.5 | 0.125 | 0.5 | 0.5 | 0.5 | 0.25 | 16 | 0.5 | >64 | 0.5 | 1 | 0.5 | 4 | >64 | minimal inhibitory concentration (MIC), EC 14 (Escherichia coli EC14): >64

From US6670446B1, “N1 modified glycopeptides” (Eli Lilly and Company, priority 1998, dated 2003)
